Measured values published in patent US20240262844A1, “PYRIDINIUM SALTS AND METHODS OF USE” (UNIVERSITY OF WYOMING, priority 2023, published 2024).
Structures can show the parent of a compound that is named as a salt.

Columns and labels:
[1] = Stern-Volmer fluorescence quenching analysis; format: physicochemical; conditions: 100 μM pyridinium salt in 20 mM NH4OAc pH 6.9, increasing NATA, 375 nm excitation
Method: FIG. 7 is a Stern-Volmer plot of florescence quenching of pyridinium salt 2a with a small molecule tryptophan analog N-acetyltryptophanamide (NATA) according to at least one embodiment of the present disclosure. The Stern-Volmer plot was generated by excitation of a 100 μM solution of pyridinium salt 2a in 20 mM NH4OAc pH 6.9 in the presence of increasing concentrations of NATA. Analyses were performed at 375 nm excitation. The calculated Kq, assuming 11 (0.2548 ns) quenching, was determined to be about 1.019E5 M^−1s^−1. The calculated Kq, assuming τ2 (3.399 ns) quenching, was determined to be about 7.638E3 M^−1s^−1.

[2] = target: T1, chymotrypsinogen (25 kDa) (Bos taurus, UniProt P00766); experiment: Photochemical labeling of chymotrypsinogen (LC/MS, MS-MS); format: biochemical, bovine; conditions: digestion/MS-MS
T1 construct: α-Chymotrypsinogen A from bovine pancreas; purchased Sigma Aldrich; host or cells: bovine pancreas
Method: General Procedure B: Photochemical Irradiation of Peptides and Proteins: To a 2 mL Pyrex LC/MS vial (Thermo model #03-391-39) were sequentially added solutions containing the desired biomolecule, glutathione (GSH), pyridinium salt, and ammonium acetate (NH4OAc). The resulting solution was diluted to a final volume of 500 μL and then sparged using nitrogen for a minimum of 30 minutes prior to irradiation. The actively sparging solution was then placed in an EvoluChem™ PhotoRedOx Box photoreactor that was equipped with a Kessil, PR160 427 nm LED Lamp and was then irradiated (100% lamp intensity) for the designated time at room temperature while maintaining active sparging. The resultant reaction mixture was then analyzed directly by LC/MS. Analysis of labeling outcomes using LC/MS was performed either by extracted ion chromatogram intensities (method A) or by integrating the area under the peaks associated with peptide content (method B). These values were totaled, and estimated percentages were assigned according to relative intensities of peaks or ion counts.
Labeling of Chymotrypsinogen with pyridinium salt 2a (Chymotrypsinogen-2a Conjugate). […] The reaction mixture was directly analyzed by LC/MS using method A and was estimated to have proceeded with 90% conversion with a 20.7:8.3:1 mono:di:tri labeled ratio and 4% glutathionylation of all unlabeled and labeled protein content. […]

COC(=O)N(C)[n+]1c(C)cc(-c2ccc3cc(OC)ccc3c2)cc1C [Pyridinium salt 2a, 1-((methoxycarbonyl)(methyl)amino)-4-(6-methoxynapthalen-2-yl)-2,6-dimethylpyridin-1-ium tetrafluoroborate]
calculated Kq, assuming τ1 (0.2548 ns) quenching [1]: about 1.019E5 M^−1s^−1 | calculated Kq, assuming τ2 (3.399 ns) quenching [1]: about 7.638E3 M^−1s^−1 | detectable locations of labeling [2]: Trp-215 and Trp-237
